Measurements as given in patent US20190282476A1, “Cleansing Composition” (Colgate-Palmolive Company, priority 2015, published 2019).

Test system: typical microorganisms encountered in personal care compositions
Source text: The cleansing compositions, e.g. any of Composition 1 or 1.1 to 1.27, include as preservatives, phenoxyethanol, sodium salicylate and a chelating agent (e.g., a salt of ethylenediaminetetraacetic acid). […] It is well known that preservative agents have established minimum inhibitory concentrations, and below such concentrations preservative agents are not effective in preventing microbial growth.

With O=C([O-])c1ccccc1O.[Na+] [sodium salicylate] the MIC was “about 0.019 % by weight”.
